Patent US20110306597A1, “Nicotinamide Derivatives” (priority 2008, published 2011)

Molecular target: human recombinant H-PGDS (Homo sapiens, UniProt O60760)
Assay: Fluorescence Intensity h-PGDS TBA Enzyme Assay
Assay type: biochemical
Settings: 1:175,000 human recombinant H-PGDS, highest inhibitor concentration typically 1 μM
Procedure: Fluorescence Intensity h-PGDSTBA Enzyme Assay
Prostaglandin D Synthase (PGDS) converts the substrate prostaglandin H2 (PGH2) to prostaglandin D2. The depletion of PGH2 was measured via an Fe(II) reduction of the remaining PGH2 to malondialdehyde (MDA) and 12-HHT. The enzyme assay is based on the quantitative formation of a fluorescent complex from the non-fluorescent compounds MDA and 2-thiobarbituric acid (TBA), substantially as described in U.S. patent application publication US-2004/152148 by Lombardt.
The enzyme assay (31 μls) contained 100 mM Tris base pH 8.0, 100 μM MgCl2, 0.1 mg/ml IgG Rabbit serum, 5.0 μM PGH2 (Cayman; ethanol solution, #17020), 2.5 mM L-Glutathione (Sigma; reduced form #G4251), 1:175,000 human recombinant H-PGDS (from 1 mg/ml), 0.5% DMSO and inhibitor (varying concentration). Three μls of diluted inhibitor (dissolved in DMSO) was plated into a 384-well assay plate followed by a 25 μl addition of an enzyme solution containing h-PGDS, Tris, MgCl2, IgG and L-Glutathione. After preincubation of inhibitor and enzyme solution for 10 minutes at room temperature, the reaction was initiated with a 3 μl addition of substrate solution in 10 mM HCl. The reaction was terminated after 42 second by the addition (3 μl) of stop buffer containing FeCl2 and citric acid. After addition of 45.5 μls of TBA plates were heated for one hour in a 70 C oven. Plates were cooled at room temperature overnight and read on a plate reader the next day with excitation @ 530 nm and emission @ 565 nm.
IC50's of inhibitors were calculated with a 4-parameter fit using 11 inhibitor concentrations in duplicate with 3-fold serial dilutions. Controls on each plate included no inhibitor (zero % effect) and an inhibitor 10-fold in excess of its' IC50 (100% effect). The highest inhibitor concentration tested was typically 1 μM.

Sequence of human recombinant H-PGDS (O60760 whole entry): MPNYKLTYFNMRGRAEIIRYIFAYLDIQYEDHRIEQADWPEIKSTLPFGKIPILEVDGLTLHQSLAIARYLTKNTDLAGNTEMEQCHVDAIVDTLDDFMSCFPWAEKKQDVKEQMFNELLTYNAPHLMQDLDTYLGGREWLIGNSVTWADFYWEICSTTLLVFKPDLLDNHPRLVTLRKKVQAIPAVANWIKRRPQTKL

SMILES: CCn1cc(-c2nnc(CCNC(=O)c3ccc(-c4cccc(F)c4)nc3)o2)cn1 [Example 45, N-{2-[5-(1-Ethyl-1H-pyrazol-4-yl)-1,3,4-oxadiazol-2-yl]ethyl}-6-(3-fluorophenyl)nicotinamide]
- IC50: 0.0307 µM

SMILES: COc1cccc(-c2ccc(C(=O)NCC(C)(C)N3CCOCC3)cn2)c1 [Example 279, 6-(3-Methoxyphenyl)-N-(2-methyl-2-morpholin-4-ylpropyl)nicotinamide]
- IC50: 0.211 µM

SMILES: Cc1cccc(-c2ccc(C(=O)NCCCNc3ccccn3)cn2)c1 [Example 231, 6-(3-Methylphenyl)-N-[3-(pyridin-2-ylamino)propyl]nicotinamide]
- IC50: 0.00786 µM

SMILES: O=C(NCCC1CCCCO1)c1ccc(-c2cccc(F)c2)nc1 (stereo not drawn) [Example 172, 6-(3-Ffluorophenyl)-N-[2-(tetrahydro-2H-pyran-2-yl)ethyl]nicotinamide]
- IC50: 0.00574 µM

SMILES: COc1cccc(-c2ccc(C(=O)NCCc3ccncc3)cn2)c1 [Example 345, 6-(3-Methoxyphenyl)-N-(2-pyridin-4-ylethyl)nicotinamide]
- IC50: 0.308 µM

SMILES: COc1cccc(-c2ccc(C(=O)NCc3nnc(-c4cccnc4)[nH]3)cn2)c1 [Example 510, 6-(3-Methoxyphenyl)-N-[(5-pyridin-3-yl-4H-1,2,4-triazol-3-yl)methyl]nicotinamide]
- IC50: 0.575 µM

SMILES: O=C(NCC1CCCN(c2ccccn2)C1)c1ccc(-c2cccc(F)c2)nc1 (stereo not drawn) [Example 14, 6-(3-Fluorophenyl)-N-[(1-pyridin-2-ylpiperidin-3-yl)methyl]nicotinamide]
- IC50: 0.00918 µM

SMILES: COc1cccc(CNC(=O)c2ccc(-c3cccc(F)c3)nc2)c1OC [Example 33, N-(2,3-Dimethoxybenzyl)-6-(3-fluorophenyl)nicotinamide]
- IC50: 0.00272 µM

SMILES: CCOC(=O)C1(NC(=O)c2ccc(-c3ccccc3)nc2)CCOCC1 [Example 372, Ethyl 4-{[(6-phenylpyridin-3-yl)carbonyl]amino}tetrahydro-2H-pyran-4-carboxylate]
- IC50: 0.249 µM

SMILES: COCc1cc(CNC(=O)c2ccc(-c3cccc(F)c3)nc2)n[nH]1 [Example 36, 6-(3-Fluorophenyl)-N-{[5-(methoxymethyl)-1H-pyrazol-3-yl]methyl}nicotinamide]
- IC50: 0.0277 µM

SMILES: CC(C)NC(=O)c1ccc(-c2ccc(F)cc2)nc1 [Example 503, 6-(4-Fluorophenyl)-N-isopropylnicotinamide]
- IC50: ≥ 1 µM

SMILES: O=C(NCCCN1CCCC1=O)c1ccc(-c2ccc(F)cc2)nc1 [Example 327, 6-(4-Fluorophenyl)-N-[3-(2-oxopyrrolidin-1-yl)propyl]nicotinamide]
- IC50: 0.597 µM

SMILES: CC(NC(=O)c1ccc(-c2cccc(F)c2)nc1)C1CC1 (stereo not drawn) [Example 128, N-(1-Cyclopropylethyl)-6-(3-fluorophenyl)nicotinamide]
- IC50: 0.0283 µM

SMILES: Cc1cc(C)cc(-c2nnc(CCNC(=O)c3ccc(-c4cccc(F)c4)nc3)o2)c1 [Example 213, N-{2-[5-(3,5-Dimethylphenyl)-1,3,4-oxadiazol-2-yl]ethyl}-6-(3-fluorophenyl)nicotinamide]
- IC50: 0.0283 µM

SMILES: CN1CCc2nc(N3CCCC(CNC(=O)c4ccc(-c5cccc(F)c5)nc4)C3)ncc2C1 (stereo not drawn) [Example 89, 6-(3-Fluorophenyl)-N-{[1-(6-methyl-5,6,7,8-tetrahydropyrido[4,3-d]pyrimidin-2-yl)piperidin-3-yl]methyl}nicotinamide]
- IC50: 0.00613 µM

SMILES: COc1cccc(-c2ccc(C(=O)NC(=O)[C@@H](N)C(C)C)cn2)c1 [Example 287, 6-(3-Methoxyphenyl)-N-L-valylnicotinamide]
- IC50: 0.816 µM

SMILES: O=C(NCC1CCCN(c2ncccn2)C1)c1ccc(-c2cccc(F)c2)nc1 (stereo not drawn) [Example 101, 6-(3-Fluorophenyl)-N-[(1-pyrimidin-2-ylpiperidin-3-yl)methyl]nicotinamide]
- IC50: 0.0174 µM

SMILES: CC[C@H](CC#N)NC(=O)c1ccc(-c2cccc(F)c2)nc1 [Example 65, N-[(1R)-1-(Cyanomethyl)propyl]-6-(3-fluorophenyl)nicotinamide]
- IC50: 0.0603 µM

SMILES: COC(=O)[C@H](Cc1ccc(Cl)cc1)NC(=O)c1ccc(-c2cccc(F)c2)nc1 [Example 403, Methyl 4-chloro-N-{[6-(3-fluorophenyl)pyridin-3-yl]carbonyl}phenylalaninate]
- IC50: 0.238 µM

SMILES: COc1cccc(-c2ccc(C(=O)NCc3ccc(Cl)cc3)cn2)c1 [Example 281, N-(4-Chlorobenzyl)-6-(3-methoxyphenyl)nicotinamide]
- IC50: 0.561 µM

SMILES: CCOC(=O)C(CNC(=O)c1ccc(-c2cccc(F)c2)nc1)C1CCCC1 (stereo not drawn) [Example 155, Ethyl 2-cyclopentyl-3-({[6-(3-fluorophenyl)pyridin-3-yl]carbonyl}amino)propanoate]
- IC50: 0.0059 µM

SMILES: CNS(=O)(=O)c1ccc(CNC(=O)c2ccc(-c3cc(F)cc(OC)c3)nc2)cc1 [Example 559, 6-(3-Fluoro-5-methoxyphenyl)-N-{4-[(methylamino)sulfonyl]benzyl}nicotinamide]
- IC50: 0.44 µM

SMILES: COC(=O)c1ccc(CNC(=O)c2ccc(-c3cccc(OC)c3)nc2)cc1 [Example 344, Methyl 4-[({[6-(3-methoxyphenyl)pyridin-3-yl]carbonyl}amino)methyl] benzoate]
- IC50: 0.159 µM

SMILES: CN(C)C(=O)CNC(=O)c1ccc(-c2ccccc2)nc1 [Example 374, N-[2-(Dimethylamino)-2-oxoethyl]-6-phenylnicotinamide]
- IC50: 0.0921 µM

SMILES: CCOC(=O)CC[C@H](NC(=O)c1ccc(-c2cccc(F)c2)nc1)C(=O)OCC [Example 27, Diethyl N-{[6-(3-fluorophenyl)pyridin-3-yl]carbonyl}-L-glutamate]
- IC50: 0.00429 µM

SMILES: O=C(NCc1ccc(Cl)cc1)c1ccc(-c2cccc(F)c2)nc1 [Example 410, N-(4-Chlorobenzyl)-6-(3-fluorophenyl)nicotinamide]
- IC50: 0.0398 µM

SMILES: COc1cccc(-c2ccc(C(=O)NCCC3CCCCO3)cn2)c1 (stereo not drawn) [Example 304, 6-(3-Methoxyphenyl)-N-[2-(tetrahydro-2H-pyran-2-yl)ethyl]nicotinamide]
- IC50: 0.177 µM

SMILES: COC(=O)[C@H](Cc1ccc(Cl)cc1)NC(=O)c1ccc(-c2ccccc2)nc1 [Example 369, Methyl 4-chloro-N-[(6-phenylpyridin-3-yl)carbonyl]phenylalaninate]
- IC50: 0.0093 µM

SMILES: Cc1ccc(CN2CCC(NC(=O)c3ccc(-c4cccc(F)c4)nc3)C2=O)cc1 (stereo not drawn) [Example 193, 6-(3-Fluorophenyl)-N-[1-(4-methylbenzyl)-2-oxopyrrolidin-3-yl]nicotinamide]
- IC50: 0.00223 µM

SMILES: CN(C)[C@@H]1COC[C@H]1NC(=O)c1ccc(-c2cccc(F)c2)nc1 [Example 68, N-[(3S,4S)-4-(Dimethylamino)tetrahydro-furan-3-yl]-6-(3-fluorophenyl)nicotinamide]
- IC50: 0.0758 µM

SMILES: CC(C)(C)OCCNC(=O)c1ccc(-c2cccc(F)c2)nc1 [Example 134, N-(2-tert-Butoxyethyl)-6-(3-fluorophenyl)nicotinamide]
- IC50: 0.0477 µM

SMILES: CN(C)C(=O)CNC(=O)c1ccc(-c2ccc(F)cc2)nc1 [Example 325, N-[2-(Dimethylamino)-2-oxoethyl]-6-(4-fluorophenyl)nicotinamide]
- IC50: ≥ 1 µM

SMILES: CCOC(=O)CC(NC(=O)c1ccc(-c2cccc(OC)c2)nc1)c1ccc(Cl)cc1 (stereo not drawn) [Example 334, Ethyl 3-(4-chlorophenyl)-3-({[6-(3-methoxyphenyl)pyridin-3-yl]cabonyl}amino)propanoate]
- IC50: ≥ 1 µM
